Converted amounts (≈) assume the structure as drawn. Each block holds one compound with its values, some of them ahead of it. Bridge positions count the residues as written; N and C are the ends. Square brackets hold non-standard residues; d marks the D form. Peptide text beside a SMILES is read from it. * marks the point of attachment. Gly(octyl) = CCCCCCCC[C@H](N)C(=O)O; Heptanoyl(6-Me) = CC(C)CCCCC(=O)*; Octanoyl = CCCCCCCC(=O)*; Dab = NCC[C@H](N)C(=O)O
Assays:
[1] = system: Pseudomonas aeruginosa; experiment: Antibiofilm activity against Pseudomonas aeruginosa assessed as reduction in biofilm formation at 100 uM; format: functional; design: scale not given: the % may be the effect or the level left
[2] = system: Pseudomonas aeruginosa; experiment: Antibiofilm activity against Pseudomonas aeruginosa assessed as reduction in biofilm formation; format: functional, organism-based
[3] = system: Pseudomonas aeruginosa; experiment: Antibacterial activity against multidrug resistant Pseudomonas aeruginosa assessed as reduction in bacterial growth; format: functional
[4] = Inhibition of bacterial FabH; design: species or system Bacteria
[5] = system: Pseudomonas aeruginosa; experiment: Antimicrobial activity against Pseudomonas aeruginosa assessed as reduction in bacterial growth; format: functional, organism-based
[6] = system: Pseudomonas aeruginosa; experiment: Antibacterial activity against Pseudomonas aeruginosa PAO1 assessed as reduction in bacterial growth; format: functional
[7] = system: Pseudomonas aeruginosa; experiment: Antibiofilm activity against Pseudomonas aeruginosa assessed as reduction in biofilm formation at 100 uM measured after 24 hrs; format: functional; design: scale not given: the % may be the effect or the level left
[8] = biological target: T1, Elastase (Pseudomonas aeruginosa (strain ATCC 15692 / PAO1 / 1C / PRS 101 / LMG12228), UniProt P14756); experiment: Inhibition of Pseudomonas aeruginosa LasB elastase using aminobenzoyl-Ala-Gly-Leu-Ala-p-nitro-benzyl-amide as substrate b microtiter-based fluorimetric assay
T1 sequence (P14756 whole entry): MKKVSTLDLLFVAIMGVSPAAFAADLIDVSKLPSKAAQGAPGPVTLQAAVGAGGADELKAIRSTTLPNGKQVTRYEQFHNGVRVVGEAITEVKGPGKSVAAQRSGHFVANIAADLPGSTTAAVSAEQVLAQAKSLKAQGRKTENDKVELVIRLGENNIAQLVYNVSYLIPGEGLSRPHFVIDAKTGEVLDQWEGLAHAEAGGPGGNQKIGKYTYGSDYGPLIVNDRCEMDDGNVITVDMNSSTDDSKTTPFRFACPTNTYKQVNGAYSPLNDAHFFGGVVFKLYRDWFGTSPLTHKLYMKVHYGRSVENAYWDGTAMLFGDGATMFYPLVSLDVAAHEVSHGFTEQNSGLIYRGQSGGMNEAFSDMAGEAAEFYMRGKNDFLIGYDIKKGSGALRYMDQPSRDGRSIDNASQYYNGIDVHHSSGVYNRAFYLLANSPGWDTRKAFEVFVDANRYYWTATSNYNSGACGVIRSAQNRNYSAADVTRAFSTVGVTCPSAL

[9] = biological target: T1, Elastase; experiment: Inhibition of Pseudomonas aeruginosa LasB elastase
[10] = system: Pseudomonas aeruginosa; experiment: Downregulation of c-di-GMP level in Pseudomonas aeruginosa PA14 planktonic cells harboring wspR gene mutation at 50 uM incubated for 24 hrs by HPLC analysis; format: functional
[11] = biological target: T2, PA-I galactophilic lectin (Pseudomonas aeruginosa (strain ATCC 15692 / PAO1 / 1C / PRS 101 / LMG12228), UniProt Q05097); experiment: Binding affinity to Pseudomonas aeruginosa PAO1 LecA assessed as dissociation constant
T2 sequence (Q05097 whole entry): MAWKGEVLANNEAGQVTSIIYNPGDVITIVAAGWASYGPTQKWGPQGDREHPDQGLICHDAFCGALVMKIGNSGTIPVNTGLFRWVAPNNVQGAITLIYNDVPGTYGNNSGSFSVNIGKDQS

[12] = Half life in mouse; format: ADME, organism-based; details: in vivo
[13] = biological target: T3, Transcriptional activator protein LasR (Pseudomonas aeruginosa (strain ATCC 15692 / PAO1 / 1C / PRS 101 / LMG12228)) (UniProt P25084); experiment: Inhibition of Pseudomonas aeruginosa PAO1 LasR at 200 uM relative to control
T3 sequence (whole entry): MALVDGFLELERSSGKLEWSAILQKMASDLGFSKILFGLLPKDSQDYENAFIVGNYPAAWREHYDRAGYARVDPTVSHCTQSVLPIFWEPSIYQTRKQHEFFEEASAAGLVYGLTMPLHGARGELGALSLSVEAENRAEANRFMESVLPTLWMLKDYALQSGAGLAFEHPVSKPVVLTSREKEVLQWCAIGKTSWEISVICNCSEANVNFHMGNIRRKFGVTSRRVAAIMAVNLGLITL

[14] = system: Pseudomonas aeruginosa; experiment: Antimicrobial activity against polymyxin resistant Pseudomonas aeruginosa assessed as reduction in bacterial growth; format: functional
[15] = system: Pseudomonas aeruginosa; experiment: Antimicrobial activity against Pseudomonas aeruginosa PA14 assessed as reduction in bacterial growth; format: functional
[16] = biological target: T4, Hexosaminidase D (Homo sapiens, UniProt Q8WVB3); experiment: Inhibition of human recombinant beta-hexosaminidase
T4 sequence (Q8WVB3 whole entry): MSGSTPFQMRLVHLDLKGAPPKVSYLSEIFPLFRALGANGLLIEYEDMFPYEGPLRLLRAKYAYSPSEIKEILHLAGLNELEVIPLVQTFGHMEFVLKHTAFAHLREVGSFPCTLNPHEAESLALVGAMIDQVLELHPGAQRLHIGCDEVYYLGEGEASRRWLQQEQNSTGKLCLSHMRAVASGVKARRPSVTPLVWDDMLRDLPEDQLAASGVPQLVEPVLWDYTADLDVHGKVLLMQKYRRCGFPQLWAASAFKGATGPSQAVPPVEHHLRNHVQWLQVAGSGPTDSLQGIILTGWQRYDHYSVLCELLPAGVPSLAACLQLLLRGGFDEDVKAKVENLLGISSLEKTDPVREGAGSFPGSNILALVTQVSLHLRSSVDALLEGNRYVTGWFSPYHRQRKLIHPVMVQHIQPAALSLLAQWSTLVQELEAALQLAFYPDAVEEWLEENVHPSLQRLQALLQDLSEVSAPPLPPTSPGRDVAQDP

[17] = system: Pseudomonas aeruginosa; experiment: Antibacterial activity against Pseudomonas aeruginosa PAO1 infected in Caenorhabditis elegans worms assessed as worms survival at 50 uM measured after 24 hrs; format: functional
[18] = system: Pseudomonas aeruginosa; experiment: Inhibition of biofilm formation in Pseudomonas aeruginosa assessed as reduction in biofilm formation; format: functional, organism-based

Structure (SMILES): O=C(Nc1ccc(Nc2ccccc2)cc1)c1ccccc1
Activity [1]: 22% | IC50 [2]: 26 µM

Structure (SMILES): CNc1cc(F)cc2c1[nH]c1nc(Sc3cnc(C)nc3)nc(N3C[C@H]4C[C@@H](N(C)C)[C@H]4C3)c12
MIC [3]: 2 µg/mL (≈ 4.18 µM)

Structure (SMILES): CC(=O)Oc1cccc(C(=O)NCCCC(CCCNC(=O)c2cccc(OC(C)=O)c2OC(C)=O)(CCCNC(=O)c2cccc(OC(C)=O)c2OC(C)=O)NC(=O)CCC(=O)N[C@@H](C(=O)N[C@@H]2C(=O)N3[C@@H]2SC(C)(C)[C@@H]3C(=O)O)c2ccccc2)c1OC(C)=O
MIC [5]: 0.39 µM | MIC [6]: > 200 µM

Structure (SMILES): O=C1c2ccccc2[Se](=O)N1c1ccccc1 (stereo not drawn)
Activity [10]: 80%

Structure (SMILES): COc1ccc(/C=C/C(=O)NC[C@H]2O[C@H](OC)[C@@H](O)[C@@H](O)[C@@H]2O)cc1OC
Kd [11]: 11 µM | half-life [12]: 5 min

Structure (SMILES): O=c1c2ccccc2[se]n1-c1ccccc1 [EBSELEN]
Activity [10]: 80%

Structure (SMILES): CC(C)CCCCC(=O)N[C@@H](CCN)C(=O)N[C@H](C(=O)N[C@@H](CCN)C(=O)N[C@H]1CCNC(=O)[C@H]([C@@H](C)O)NC(=O)[C@H](CCN)NC(=O)[C@H](CCN)NC(=O)[C@H](CC(C)C)NC(=O)[C@@H](Cc2ccccc2)NC(=O)[C@H](CCN)NC1=O)[C@@H](C)O [POLYMYXIN B2] ({Heptanoyl(6-Me)}-[Dab]T[Dab][Dab][Dab][dF]L[Dab][Dab]T; lactam 4-C)
MIC [14]: < 2 µg/mL

Structure (SMILES): CO[C@H](C(N)=O)[C@H](NC(=O)c1ccc(NC(=O)c2ccc([N+](=O)[O-])cc2)cc1)C(=O)Nc1ccc(C(=O)Nc2ccc(C(=O)Nc3ccc(C(=O)O)cc3OC(C)C)c(O)c2OC(C)C)cc1
MIC [5]: 1 µg/mL | MIC [15]: 3.4 µg/mL (≈ 3.7 µM)

Structure (SMILES): CCCCCCCC[C@@H]1NC(=O)[C@@H](Cc2ccccc2)NC(=O)[C@H](CCN)NC(=O)[C@@H](NC(=O)[C@H](CCN)NC(=O)[C@@H](NC(=O)[C@H](CCN)NC(=O)CCCCCCC)[C@@H](C)O)CCNC(=O)[C@H]([C@@H](C)O)NC(=O)[C@H](CCN)NC(=O)[C@H](CCN)NC1=O (Octanoyl-[Dab]T[Dab][Dab][Dab][dF][Gly(octyl)][Dab][Dab]T; lactam 4-C)
MIC [14]: < 2 µg/mL

Structure (SMILES): CCN(CC)S(=O)(=O)c1cccc(C(=O)Nc2cccc(O)c2C(=O)O)c1
IC50 [4]: 35 µM

Second part, led by results:

IC50 [4]: 65 µM
Structure (SMILES): CCN(CC)S(=O)(=O)c1cc(C(=O)Nc2ccccc2C(=O)O)ccc1Br

IC50 [2]: 0.046 µM
Structure (SMILES): COc1ccc2[nH]c(SCc3ccc(C)cc3)nc2c1
Activity [7]: 50%

Ki [8]: 0.041 µM | IC50 [9]: 6 µM
Structure (SMILES): NC(=O)[C@H](Cc1ccc(O)cc1)NC(=O)[C@H](Cc1ccccc1)NC(=O)CS

inhibition [13]: 77%
Structure (SMILES): O=C(Cc1ccc(Br)cc1)N[C@H]1CCOC1=O

IC50 [16]: 12.5 µM
Structure (SMILES): C[C@@H](Oc1ccc(Cl)cc1Cl)C(=O)NCc1ccc2c(c1)OCO2

IC50 [18]: 8 µM
Structure (SMILES): O=C(CCCOc1ccc(Br)cc1)NC1CCSC1=O (stereo not drawn)
Activity [17]: 23%
